Assay results reported in patent US7855205B2, “Pyrimidinyl substituted fused-pyrrolyl compounds useful in treating kinase disorders” (Janssen Pharmaceutica NV, priority 2004, dated 2010).

Columns and labels:
[1] = target: T1, CDK1:Cyclin-B (Homo sapiens, UniProt P06493); test: CDK1 Screening Assay; format: biochemical; conditions: 33P-γ-ATP incorporation, 10 μM ATP
T1 construct: purchased New England Biolabs, Beverly, Mass; 6020; host or cells: insect cells
Procedure, shortened: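 Human CDK1/cyclin B co-expressed in insect cells (30 ng/well) in 50 mM Tris pH 8, 10 mM MgCl2, with 10 μM ATP, 33P-γ-ATP and 0.025 μM biotinylated histone H1 peptide (reaction-mix levels); 1% DMSO final. 1 h at 30° C. 33P incorporation into streptavidin-captured peptide by scintillation counting.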

[2] = target: T2, HER2 (Homo sapiens, UniProt P04626); test: HER2 kinase Screening Assay; format: biochemical; conditions: 33P-γ-ATP incorporation, 10 μM ATP
T2 construct: polyhistidine (N)
T2 sequence (P04626 676-1255 limits assumed): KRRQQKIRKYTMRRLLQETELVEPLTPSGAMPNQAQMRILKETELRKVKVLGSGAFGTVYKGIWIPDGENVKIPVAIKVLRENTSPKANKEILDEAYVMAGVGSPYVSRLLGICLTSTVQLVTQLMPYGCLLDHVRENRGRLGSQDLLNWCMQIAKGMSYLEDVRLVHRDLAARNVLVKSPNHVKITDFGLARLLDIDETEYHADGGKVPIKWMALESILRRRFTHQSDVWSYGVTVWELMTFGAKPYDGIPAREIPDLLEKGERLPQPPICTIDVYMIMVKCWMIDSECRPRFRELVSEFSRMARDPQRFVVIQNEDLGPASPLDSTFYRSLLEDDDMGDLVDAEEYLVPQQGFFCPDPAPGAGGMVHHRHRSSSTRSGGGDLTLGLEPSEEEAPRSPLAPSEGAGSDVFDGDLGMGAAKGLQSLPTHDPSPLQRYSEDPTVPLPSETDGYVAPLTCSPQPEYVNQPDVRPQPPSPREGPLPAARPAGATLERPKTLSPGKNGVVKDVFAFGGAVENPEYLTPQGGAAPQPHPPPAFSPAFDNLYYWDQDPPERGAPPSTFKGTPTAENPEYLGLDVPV

[3] = tested on: A375 malignant melanoma; test: Inhibition of cell proliferation (14C-thymidine incorporation), A375; format: cell-based, human; conditions: Homo sapiens, A-375
Procedure, shortened: (§1)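 Cells (3000-8000/well) grown 24 h at 37° C, 5% CO2, then given compound in DMSO for 24 h before adding methyl 14C-thymidine (0.2 uCi/well) for a further 24 h with drug. After PBS washes, incorporation into DNA counted by scintillation.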

[4] = target: T3, Aurora-A (Mus musculus, UniProt P97477); test: Aurora-A Screening Assay; format: biochemical, murine; conditions: 33P-γ-ATP incorporation, 10 μM ATP
T3 construct: made in house; host or cells: sf9 insect cells
T3 sequence (P97477 1-395): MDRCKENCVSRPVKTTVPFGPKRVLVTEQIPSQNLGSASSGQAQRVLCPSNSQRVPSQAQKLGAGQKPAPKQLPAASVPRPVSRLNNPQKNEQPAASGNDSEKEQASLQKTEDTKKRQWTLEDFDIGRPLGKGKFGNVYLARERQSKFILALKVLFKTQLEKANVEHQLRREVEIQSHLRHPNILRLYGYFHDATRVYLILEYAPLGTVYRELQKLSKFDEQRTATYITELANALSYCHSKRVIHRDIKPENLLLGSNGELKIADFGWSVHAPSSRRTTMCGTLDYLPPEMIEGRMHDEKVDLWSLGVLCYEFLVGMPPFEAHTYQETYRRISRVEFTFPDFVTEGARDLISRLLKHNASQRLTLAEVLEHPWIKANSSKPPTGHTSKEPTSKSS

[5] = target: T4, VEGF-R2 (Rattus norvegicus, UniProt O08775); test: VEGF-R2 Screening Assay; format: biochemical; conditions: 33P-γ-ATP incorporation, 10 μM ATP
T4 construct: polyhistidine (N)
T4 sequence (O08775 786-1343): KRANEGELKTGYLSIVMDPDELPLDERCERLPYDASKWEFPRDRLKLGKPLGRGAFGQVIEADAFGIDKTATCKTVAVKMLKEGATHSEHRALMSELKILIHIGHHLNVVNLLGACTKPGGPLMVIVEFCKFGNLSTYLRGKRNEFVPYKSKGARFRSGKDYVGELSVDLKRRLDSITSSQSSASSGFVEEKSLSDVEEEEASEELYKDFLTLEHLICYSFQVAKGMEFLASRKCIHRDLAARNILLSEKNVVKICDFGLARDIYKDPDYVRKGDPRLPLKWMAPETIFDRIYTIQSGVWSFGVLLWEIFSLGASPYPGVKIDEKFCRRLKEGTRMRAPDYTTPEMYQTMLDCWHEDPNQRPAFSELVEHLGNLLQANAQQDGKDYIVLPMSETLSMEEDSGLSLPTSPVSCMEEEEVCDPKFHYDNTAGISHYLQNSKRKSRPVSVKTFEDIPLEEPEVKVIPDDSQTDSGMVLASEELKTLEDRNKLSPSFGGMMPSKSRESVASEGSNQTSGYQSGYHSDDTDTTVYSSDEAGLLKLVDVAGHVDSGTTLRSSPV
Procedure, shortened: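 The N-terminally His-tagged rat VEGF-R2 kinase domain (aa 786-1343), diluted in 50 mM Tris-HCl pH 8.0 with 0.1% BSA, phosphorylated a biotinylated histone-H1 peptide with 33P-γ-ATP on Flashplates for 1 h at 30 °C in 1% DMSO. After washes with EDTA/PBS, immobilized 33P was counted by scintillation.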

[6] = tested on: HeLa cervical adenocarcinoma; test: Inhibition of cell proliferation (14C-thymidine incorporation), HeLa; format: cell-based; conditions: Homo sapiens;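 further: HeLa cells in 96-well scintillating plates, compound for 24 h then 24 h more with 14C-thymidine, counting label built into new DNA against DMSO-only control wells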
[7] = tested on: HCT-116 colon carcinoma; test: Inhibition of cell proliferation (14C-thymidine incorporation), HCT-116; format: cell-based; conditions: Homo sapiens, HCT-116, HCT116
Procedure, shortened: as §1

[8] = target: T5, RET (Homo sapiens, UniProt P07949); test: RET Kinase Screening Assay; format: biochemical; conditions: 33P-γ-ATP incorporation, 10 μM ATP
T5 construct: the RET cytoplasmic domain consisting of the last 492 amino acids of the intracellular domain of the RET tyrosine kinase; histidine tag (N); made in house; host or cells: Hi5 insect cells
T5 sequence (P07949 658-1114 limits assumed): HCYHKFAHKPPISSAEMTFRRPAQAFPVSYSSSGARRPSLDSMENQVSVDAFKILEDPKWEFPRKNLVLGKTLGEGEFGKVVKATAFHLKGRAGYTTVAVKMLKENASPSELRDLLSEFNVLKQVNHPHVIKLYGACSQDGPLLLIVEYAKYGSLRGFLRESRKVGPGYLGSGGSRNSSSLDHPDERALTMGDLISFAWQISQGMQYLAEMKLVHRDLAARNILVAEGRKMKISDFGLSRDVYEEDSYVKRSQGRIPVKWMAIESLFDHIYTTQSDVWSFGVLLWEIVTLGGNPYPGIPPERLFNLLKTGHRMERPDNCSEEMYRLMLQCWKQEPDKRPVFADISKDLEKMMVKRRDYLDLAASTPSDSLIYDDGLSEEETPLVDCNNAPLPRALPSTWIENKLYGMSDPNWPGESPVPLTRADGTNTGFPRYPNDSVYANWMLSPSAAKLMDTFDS

T1 sequence (P06493 whole entry): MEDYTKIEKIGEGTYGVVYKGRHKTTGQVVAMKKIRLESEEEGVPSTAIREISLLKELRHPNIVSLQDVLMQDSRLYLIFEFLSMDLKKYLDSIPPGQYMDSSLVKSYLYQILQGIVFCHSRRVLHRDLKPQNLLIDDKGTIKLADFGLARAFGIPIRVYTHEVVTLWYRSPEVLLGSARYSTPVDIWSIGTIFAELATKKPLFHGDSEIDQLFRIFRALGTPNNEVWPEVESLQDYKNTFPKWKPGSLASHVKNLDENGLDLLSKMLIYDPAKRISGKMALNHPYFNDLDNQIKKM
T1 sequence (P14635 whole entry partner): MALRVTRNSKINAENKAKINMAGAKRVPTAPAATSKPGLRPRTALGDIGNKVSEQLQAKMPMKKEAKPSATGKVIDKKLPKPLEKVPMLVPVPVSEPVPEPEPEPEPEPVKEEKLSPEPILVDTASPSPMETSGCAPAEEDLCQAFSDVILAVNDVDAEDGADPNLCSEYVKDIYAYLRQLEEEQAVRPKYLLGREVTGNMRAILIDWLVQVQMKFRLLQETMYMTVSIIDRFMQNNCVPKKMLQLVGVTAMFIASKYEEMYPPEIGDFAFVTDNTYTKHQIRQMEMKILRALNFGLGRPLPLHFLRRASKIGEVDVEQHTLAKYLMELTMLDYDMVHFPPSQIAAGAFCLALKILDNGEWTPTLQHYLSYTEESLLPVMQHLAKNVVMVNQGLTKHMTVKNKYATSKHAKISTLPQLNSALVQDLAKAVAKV

In the case of `COc1cc(Nc2nccc(-c3c[nH]c4ncccc34)n2)cc(OC)c1OC` [Cpd 2, [4-(1H-Pyrrolo[2,3-b]pyridin-3-yl)-pyrimidin-2-yl]-(3,4,5-trimethoxy-phenyl)-amine], the IC50 [1] is reported as 0.169 µM, the IC50 [2] is reported as 0.206 µM and the IC50 [3] is reported as 0.75 µM. For the same molecule, the IC50 [4] was 0.063 µM, the IC50 [5] was 0.046 µM and the IC50 [6] was 0.33 µM. The IC50 [7] was 0.56 µM.

With `c1cnc2[nH]cc(-c3ccnc(Nc4ccc(CCN5CCCC5)cc4)n3)c2c1` [Cpd 19, [4-(2-Pyrrolidin-1-yl-ethyl)-phenyl]-[4-(1H-pyrrolo[2,3-b]pyridin-3-yl)-pyrimidin-2-yl]-amine] the IC50 [1] was 0.032 µM, the IC50 [2] was 0.011 µM and the IC50 [3] was 0.021 µM. For the same molecule, the IC50 [4] was 0.162 µM, the IC50 [5] was 0.065 µM and the IC50 [6] was 0.029 µM. The IC50 [7] was 0.013 µM.

Molecule `CN1CCN(CCc2ccc(Nc3nccc(-c4c[nH]c5ncccc45)n3)cc2)CC1` [Cpd 21, {4-[2-(4-Methyl-piperazin-1-yl)-ethyl]-phenyl}-[4-(1H-pyrrolo[2,3-b]pyridin-3-yl)-pyrimidin-2-yl]-amine] has an IC50 [1] of 0.068 µM, an IC50 [2] of 0.009 µM and an IC50 [3] of 0.0295 µM. It also gave an IC50 [4] of 0.197 µM, an IC50 [5] of 0.075 µM and an IC50 [6] of 0.0315 µM. The IC50 [7] was 0.0159 µM.

Work on `CN(C)CCc1ccc(Nc2nccc(-c3c[nH]c4ncccc34)n2)cc1` [Cpd 23, [4-(2-Dimethylamino-ethyl)-phenyl]-[4-(1H-pyrrolo[2,3-b]pyridin-3-yl)-pyrimidin-2-yl]-amine] yielded an IC50 [1] of 0.039 µM, an IC50 [2] of 0.012 µM and an IC50 [3] of 0.024 µM. For the same molecule, the IC50 [4] was 0.257 µM, the IC50 [5] was 0.066 µM and the IC50 [6] was 0.03 µM. The IC50 [7] was 0.025 µM.

`CCN(CC)CCc1ccc(Nc2nccc(-c3c[nH]c4ncccc34)n2)cc1` [Cpd 24, [4-(2-Diethylamino-ethyl)-phenyl]-[4-(1H-pyrrolo[2,3-b]pyridin-3-yl)-pyrimidin-2-yl]-amine] was tested, and the IC50 [1] was 0.028 µM, the IC50 [2] was 0.009 µM and the IC50 [3] was 0.031 µM. It also gave an IC50 [4] of 0.244 µM, an IC50 [5] of 0.089 µM and an IC50 [6] of 0.034 µM. The IC50 [7] was 0.018 µM.

`CNCCc1ccc(Nc2nccc(-c3c[nH]c4ncccc34)n2)cc1` [Cpd 25, [4-(2-Methylamino-ethyl)-phenyl]-[4-(1H-pyrrolo[2,3-b]pyridin-3-yl)-pyrimidin-2-yl]-amine] gave an IC50 [1] of 0.051 µM, an IC50 [2] of 0.012 µM and an IC50 [3] of 0.04 µM. For the same molecule, the IC50 [4] was 0.182 µM, the IC50 [5] was 0.093 µM and the IC50 [6] was 0.062 µM. The IC50 [7] was 0.068 µM.

Molecule `CCNCCc1ccc(Nc2nccc(-c3c[nH]c4ncccc34)n2)cc1` [Cpd 26, [4-(2-Ethylamino-ethyl)-phenyl]-[4-(1H-pyrrolo[2,3-b]pyridin-3-yl)-pyrimidin-2-yl]-amine] has an IC50 [1] of 0.014 µM, an IC50 [2] of 0.006 µM and an IC50 [3] of 0.0222 µM. It also gave an IC50 [4] of 0.157 µM, an IC50 [5] of 0.094 µM and an IC50 [6] of 0.026 µM. It also gave an IC50 [7] of 0.0135 µM.

Work on `Clc1cc(CCN2CCOCC2)ccc1Nc1nccc(-c2c[nH]c3ncccc23)n1` [Cpd 56, {2-Chloro-4-[2-(morpholin-4-yl)ethyl]phenyl}-[4-(1H-pyrrolo[2,3-b]pyridin-3-yl)-pyrimidin-2-yl]-amine] yielded an IC50 [1] of 0.105 µM, an IC50 [3] of 0.727 µM and an IC50 [4] of 0.859 µM. For the same molecule, the IC50 [5] was 1.04 µM, the IC50 [6] was 1.1 µM and the IC50 [8] was 1.24 µM. It also gave an IC50 [7] of 0.774 µM.

Molecule `c1cnc2[nH]cc(-c3ccnc(NC4CCNCC4)n3)c2c1` [Cpd 65, Piperidin-4-yl-[4-(1H-pyrrolo[2,3-b]pyridin-3-yl)pyrimidin-2-yl]-amine] has an IC50 [1] of 0.0603 µM, an IC50 [3] of 0.0218 µM and an IC50 [4] of 1.3 µM. It also gave an IC50 [5] of 1.07 µM, an IC50 [6] of 0.0269 µM and an IC50 [8] of 1.23 µM. The IC50 [7] was 0.015 µM.

For `Cc1cc(O)ccc1Nc1nccc(-c2c[nH]c3ncccc23)n1` [Cpd 79, 3-Methyl-4-[4-(1H-pyrrolo[2,3-b]pyridin-3-yl)-pyrimidin-2-ylamino]-phenol], the IC50 [1] was 0.000764 µM, the IC50 [3] was 0.00858 µM and the IC50 [4] was 0.119 µM. The IC50 [5] was 0.927 µM, the IC50 [6] was 0.0059 µM and the IC50 [8] was 4.82 µM. For the same molecule, the IC50 [7] was 0.00492 µM.
